Measured values as given in paper doi:10.1101/2024.07.10.602890, “H105A peptide eye drops promote photoreceptor survival in murine and human models of retinal degeneration” (bioRxiv, 2024).
Ends that are not written are not given here.

Tested on: rd10 and rd10/Serpinf1−/− mice
Assay: Electroretinography (ERG) a-wave and b-wave after peptide eye drops
Type: in vivo, mouse
Conditions: for ERG a- and b-wave responses relative to vehicle-treated eyes: dark-adapted rd10 and rd10/Serpinf1−/− mice at P21, daily eye drops, n = 8
Source text: Fig. 5: Effect of daily eyedrops of PEDF peptides on ERG a-wave and b-wave retinal function (A and B) Representative ERG waveforms for rd10 (A) and rd10/Serpinf1^−/− (B) mice at P21 in response to a light flash (1 cd.s/m^2). Amplitude (y-axis) is plotted against time in milliseconds (ms, x-axis). Treatments are indicated to the right of each plot and are color coded, with control wild type C57Bl/6J mice without peptide treatment shown in blue. A-wave and b-wave are indicated by arrows. (C and D) Photoreceptor a-wave amplitudes. Averages of photoreceptor a-wave amplitudes for rd10 (C) and rd10/Serpinf1^−/− (D) mice as a function of light intensity (cd/s.m^2, x-axis). Responses of animals treated with 17-mer are shown in green, H105A in black, and vehicle (HBSS) in red. Wildtype responses are shown in blue. (E and F) Bipolar cell b-wave amplitudes. Averages of bipolar cell b-wave amplitudes for rd10 (E) and rd10/Serpinf1^−/− (F) mice as a function of light intensity (cd/s.m^2, x-axis), with treatments indicated as in panels (C) and (D). The number of mice evaluated for the data shown in Panels C-F were n = 8 for each rd10, rd10/Serpinf1^−/− and wild type. Each data point represents the average ± SD of each genotype, analyzed by unpaired t-test. Statistical significance between H105A and vehicle is indicated by ##p < 0.01, ###p < 0.001, ####p < 0.0001, and between H105A and 17-mer by **p < 0.01, ***p < 0.001, ****p < 0.0001.
Electroretinogram (ERG) for rd10 and rd10/Serpinf1^−/− mice were recorded in both eyes of each animal using an Espion E2 system with ColorDome (Diagnosys LLC) with a heated surface and mice were dark-adapted overnight as previously described ([29]). Mice were placed on the heated surface and electrodes were placed in the mouth and a subdermal platinum needle electrode was placed in the back of the mouse to serve as ground. Responses were elicited with increasing light impulses with intensity from 0.0001 to 10 cd-seconds per meter squared (cd.s/m^2). Amplitudes for a-wave were measured from stimulus to the trough of the a-wave and b-wave amplitudes were measured from a-wave to b-wave trough or peak. The values from the a and b waves for both eyes were exported to Microsoft Excel to obtained amplitude values for each mouse.
Figure S2. Effects of extending the timeline or administering eye drops of 17-mer[H105A] peptide every other day in rd10 mic e.
Eye drops of H105A peptide solution were administered to r d1 0 mice either daily (Fig. S2A) or every other day (Fi g. S 2D). A total of 5 µl of a solution containing H105A peptide at 1 mg/ml in HBSS were applied as eye drops. The vehicle HBSS was added as eye drops in the contralateral eyes. When eye […]
intensity light at P25 (Fig. S2C). When eye drops of H105A were added every other day, a rescue in the ONL thickness in r d10 mice compared to vehicle was also observed (Fi g. S 2E), with an improvement in a- […]
efficacy of peptide H105A eye drops either daily or every other day in an extended timeline to stabilize photoreceptor morphology and light response function loss in r d10 mice, however, these were less efficacious than daily H105A peptide eye drops. […]
(C) ERG of r d1 0 mice at P25 and treated as in Fi g. […] For ERG data shown, the number of mice evaluated were n =5 for rd10 and each data point corresponds to the average ± SD of each genotype by unpaired t-test. *p < 0.05, **p < 0.01, * ** p < 0 .001 , ****p < 0.0001. […]

Row | Sequence | ERG a- and b-wave responses relative to vehicle-treated eyes | ERG a-wave (rd10 mice, eye drops every other day P15 until P23, ERG at P25, n = 5)
1 | QRTESIIARALYYDLIS [H105A] | protected visual function | improvement
2 | QRTESIIHRALYYDLIS [17-mer] | protected visual function | 
